Consider one compound from patent US20220175777A1, “Inhibitors of Multidrug Resistance Transporter P-Glycoprotein” (Southern Methodist University, priority 2014, published 2022).

For test [1], the target named is T1, Cysteineless Mouse MDR3 P-glycoprotein (Mus musculus, UniProt P21447, C1070A/C1121A/C1223A/C133A/C427A/C638A/C669A/C713A/C952A).
T1 construct: made in house; host or cells: Pichia pastoris
The experiment in a line: SL-ATP binding to P-gp by ESR spectroscopy. Conditions: 50 microM inhibitor compound. In outline:
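Cysteine-free mouse P-gp (30–50 microM) incubated with 50 microM inhibitor, then titrated with spin-labelled ATP analogue SL-ATP. Bound SL-ATP calculated from high-field ESR signal of free SL-ATP versus no-protein control, giving binding stoichiometry and affinity; at least 3 studies on 3–5 P-gp preparations.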

The subject of test [2] is DU145TXR. Kind of test: Potentiation of 500 nM paclitaxel cytotoxicity (MTT). The format is cell-based, human. The method, then:
FIGS. 4A and 4B show the in silico identified P-gp inhibitors potentiate the cytotoxic effects of paclitaxel in the MDR human prostate cancer cell line DU145TxR. […] Values represent the mean±SEM of at least two separate experiments performed in triplicate.
A range of experimental inhibitor concentrations was added in the presence of 500 nM paclitaxel and the cell viability was assessed using the MTT assay.
In order to compare the efficacy of inhibitors, the potentiation concentration of inhibitor resulting in 50% reduction in cell viability, PC50, in the presence of 500 nM paclitaxel was calculated from the data in FIG. 4A.

Test [3] deals with DU145-TxR. Kind of test: Re-sensitization to Paclitaxel or Doxorubicin at 25 μM compound (MTT). It counts as cell-based, human. Conditions: 48 hours. The method, then: FIGS. 3A-3B are plots that show an example of the re-sensitization of a multidrug resistant prostate cancer cell line to two different chemotherapeutics using the prostate cancer derived cell line, DU145 and the multidrug-resistant variant, DU145-TxR. […] Cell viability was measured by the MTT (3-(4,5-dimethylthiazol-2-yl)-2,5-diphenyl tetrazolium bromide assay conducted as described previously. After 48 hours of treatment with Paclitaxel or Doxorubicin alone or in the presence of 25 μM compound 29, 34, or 45 media was removed and cells were washed twice with phosphate buffered saline (PBS) and MTT assay was conducted 24 hours later. Data expressed as mean±SEM.

Test [4] concerns A2780. Kind of test: Hyper-sensitization of ovarian cancer cells to doxorubicin. The format is cell-based. Conditions: not chemotherapy resistant A2780. The source says: Hyper-sensitization of cancers to chemotherapeutics. […] The sensitivity of normal, not chemotherapy resistant A2780 ovarian cancer cell lines to doxorubicin was increased by several orders of magnitude in these assays.

The subject of test [5] is HFL1. The experiment in a line: Intrinsic toxicity, MTT survival. The format is cell-based. Conditions: Homo sapiens, 48 hours, ± standard error. As to the method:
(§1) Percent survival determined by MTT assay calculated relative to cells treated with equal volume DMSO vehicle and represent the mean±SEM from 2-4 separate studies, each study performed in triplicate wells.
The intrinsic in vitro toxicities of identified compounds were evaluated to determine their potential therapeutic window. This was assessed in a noncancerous cell line (HFL1) and the human prostate cancer cell lines DU145 and the MDR sub-line DU145TxR. The potential toxicity of the compounds were assessed at concentrations that centered around 25 μM.

In test [6] the target is T1, Cysteineless Mouse MDR3 P-glycoprotein. Kind of test: ATP hydrolysis by purified P-glycoprotein, basal and verapamil-stimulated. The format is biochemical. Conditions: in the presence of verapamil. The procedure, abridged: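 Cysteine-less mouse MDR3 P-gp (all Cys→Ala), expressed in Pichia pastoris and stabilised with phosphatidyl choline, was pre-incubated with compounds at 37 °C. ATP hydrolysis (2 mM ATP final, 20 min) measured via pyruvate kinase/lactate dehydrogenase-coupled NADH oxidation, with and without verapamil stimulation.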

For test [7], the system named is DU145. Kind of test: Intrinsic toxicity, MTT survival. Conditions: Homo sapiens, DU-145, 48 hours, ± standard error. The format is cell-based. The method, then:
as §1
(§2) The intrinsic in vitro toxicities of identified compounds were evaluated to determine their potential therapeutic window. This was assessed in a noncancerous cell line (HFL1) and the human prostate cancer cell lines DU145 and the MDR sub-line DU145TxR.

Test [8] addresses T1, Cysteineless Mouse MDR3 P-glycoprotein. Conditions: ESR data of Brewer et al. (2014); cited from earlier work.
Test [9] concerns DU145TXR. The experiment in a line: Dose dependent sensitization of MDR cell line to paclitaxel (MTT). The format is cell-based, human. Conditions: 25 μM compound. The method, then: FIGS. 6A to 6C show the dose dependent sensitization of MDR prostate cancer cell line DU145TxR. […] For reference, the DU145TxR (closed circle) and DU145 (open circle) incubated with paclitaxel only are also included. Values are mean±SEM from at least 2 separate experiments performed in triplicate wells. The data were normalized to the intrinsic toxicities as determined in studies from FIGS. 5A to 5C of each of the compounds for each of the corresponding concentrations.
Dose Dependent Sensitization of MDR Prostate Cancer Cell Line: To determine the degree to which the MDR prostate cancer cell line DU145TxR could be sensitized to paclitaxel the inventors determined cell survival at increasing concentrations of paclitaxel in the presence of three concentrations of P-gp inhibitors. FIGS. 6A, 6B and 6C show the survival of DU145TxR at increasing concentration of paclitaxel in the presence of 5 μM, 10 μM and 25 μM of the experimental compounds, respectively. The open circles represent the parental DU145 cell line in the presence of paclitaxel without addition of any inhibitor compound. The closed circles represent the survival of the multidrug resistant DU145TxR in the presence of paclitaxel alone. […] At that concentration over 10-fold increase in paclitaxel sensitivity in DU145TxR is observed compared to DU145TxR without P-gp inhibitors. Doubling the concentration of the compounds to 10 μM approximately doubled the DU145TxR sensitivity to paclitaxel.

For test [10], the system named is DU145TXR. Kind of test: Intrinsic toxicity, MTT survival. The format is cell-based, human. Conditions: Homo sapiens; intrinsic toxicity, 48 hours, MTT; ± standard error. The method, then:
as §1, §2

Structures are written as SMILES.

T1 sequence (P21447 whole entry C133A/C427A/C638A/C669A/C713A/C952A/C1070A/C1121A/C1223A): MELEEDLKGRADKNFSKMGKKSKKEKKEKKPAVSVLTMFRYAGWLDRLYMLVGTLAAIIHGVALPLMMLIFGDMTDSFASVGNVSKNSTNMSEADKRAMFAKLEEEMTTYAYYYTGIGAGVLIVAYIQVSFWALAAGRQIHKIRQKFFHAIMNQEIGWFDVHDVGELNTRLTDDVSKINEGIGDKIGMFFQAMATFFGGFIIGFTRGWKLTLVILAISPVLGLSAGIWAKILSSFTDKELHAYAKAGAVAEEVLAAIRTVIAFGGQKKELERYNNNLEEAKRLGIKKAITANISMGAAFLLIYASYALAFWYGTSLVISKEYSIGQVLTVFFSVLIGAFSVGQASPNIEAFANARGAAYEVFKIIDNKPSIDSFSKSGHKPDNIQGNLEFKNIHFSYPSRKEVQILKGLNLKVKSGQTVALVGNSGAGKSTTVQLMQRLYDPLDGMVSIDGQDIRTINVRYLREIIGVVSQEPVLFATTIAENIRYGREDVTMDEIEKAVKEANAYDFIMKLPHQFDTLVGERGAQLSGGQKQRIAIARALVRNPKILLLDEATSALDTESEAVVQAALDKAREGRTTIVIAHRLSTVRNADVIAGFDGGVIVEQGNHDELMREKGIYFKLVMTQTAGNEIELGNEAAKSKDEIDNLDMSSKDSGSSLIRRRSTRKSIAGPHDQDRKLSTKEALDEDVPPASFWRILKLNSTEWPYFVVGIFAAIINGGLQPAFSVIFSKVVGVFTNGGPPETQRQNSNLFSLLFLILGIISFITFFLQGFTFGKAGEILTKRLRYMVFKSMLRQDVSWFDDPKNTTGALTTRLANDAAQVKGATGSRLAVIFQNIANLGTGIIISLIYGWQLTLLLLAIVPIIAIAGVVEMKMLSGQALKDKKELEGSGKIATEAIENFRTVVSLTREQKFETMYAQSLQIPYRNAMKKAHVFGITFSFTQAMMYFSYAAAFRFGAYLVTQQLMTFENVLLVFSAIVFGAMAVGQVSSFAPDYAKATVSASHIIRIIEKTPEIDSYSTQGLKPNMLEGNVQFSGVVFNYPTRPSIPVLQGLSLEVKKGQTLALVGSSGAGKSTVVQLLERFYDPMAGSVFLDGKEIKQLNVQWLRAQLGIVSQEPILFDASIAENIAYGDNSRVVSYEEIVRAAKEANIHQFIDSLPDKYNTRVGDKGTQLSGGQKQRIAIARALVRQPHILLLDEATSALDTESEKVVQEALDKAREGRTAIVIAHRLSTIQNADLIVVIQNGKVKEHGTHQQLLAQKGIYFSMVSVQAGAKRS

For the compound `CCC(C(=O)N1CCN(c2ccc(OC)cc2)CC1)n1nc(C)c2sc3ccccc3c2c1=O` (centres unmarked) [SMU-34, 2-[1-[4-(4-methoxyphenyl)piperazin-1-yl]-1-oxobutan-2-yl]-4-methyl-[1]benzothiolo[2,3-d]pyridazin-1-one], in test [1], the “Effect on SL-ATP binding” value is reported as “decreased the SL-ATP binding affinities”. Moreover, in test [2] (50 nM-25 μM inhibitor with 500 nM paclitaxel), the “Effect on paclitaxel sensitivity” value is “strongly affected the sensitivity”. Further, the EC50 in test [2] (in the presence of 500 nM paclitaxel, 48 hours, read-out: PC50, potentiation concentration of inhibitor resulting in 50% reduction in cell viability) amounted to 0.57 ± 0.003 µM. Moreover, in test [3], the “Chemotherapeutic sensitivity of MDR cell line (Paclitaxel or Doxorubicin)” value is “restores chemotherapeutic sensitivity”. Also, the Sensitivity to doxorubicin result in test [4] is reported as “hyper-sensitized”. The IC50 is 85.2 ± 0.04 µM in [5], 47.2 ± 0.02 µM in test [7] and 200.3 ± 0.17 µM in test [10]. Further, the “Effect on stimulated ATPase” value in [6] is “significantly inhibit”. Also, in [8], the “Effect on SL-ANP binding” value is “reduce the number of binding sites”. Also, in test [9], the Sensitization to paclitaxel came out at 1200 fold.
